From patent publication US20110044913A1, “8-HYDROXY-5-[(1R)-1-HYDROXY-2-[[(1R)-2-(4-METHOXYPHENYL)-1-METHYLETHYL]AMINO]ETHYL]-2(1H)-QUINOLINONE HEMI-FUMARATE” (Chiesi Farmaceutici S.p.A., priority 2009, published 2011)
Structures can show the parent of a compound that is named as a salt.

What was measured:
Assay type in all cases: physicochemical
[1] = Dispersion of the micronized salt in the carrier by Near Infrared microscopy imaging (Near Imaging); details: micronized form, after 180 minute of mixing
Description: As it can be appreciated from Table 6, upon milling, the salt of the present invention remains crystalline and its chemical purity is not altered. The batch is then added to a carrier made of coarser particles.
The homogeneous dispersion of the active ingredient in the powder, and the absence of aggregates of active particles is established using a Near Infrared spectrophotometer equipped with a microscopy imaging system (Near Imaging).

[2] = Particle size distribution after jet milling (micronization); details: micronized batch
Description: A batch of formoterol fumarate dihydrate is milled in a nitrogen fluid jet mill apparatus MC 50 (JET Pharma S.A).

[3] = Solubility of the salt in different solvents
[4] = Hygroscopicity of the salt
[5] = Chemical and physical stability of the salt; details: different conditions of humidity and temperature

- Agglomerates after mixing with carrier [1]: no agglomerates are observed
- Particle size d (v, 0.1) [2]: 0.79 μm
- Particle size d (v, 0.5) [2]: 3.73 μm
- Particle size d (v, 0.9) [2]: 7.58 μm
- Solubility in HFA propellants ([3]; HFA propellants): practically insoluble
- Solubility in Vertrel XF ([3]; solvent: Vertrel XF (2,3-dihydodecafluoropentane, simulates HFA propellants), l.o.d. = limit of detection): <l.o.d.^(2)
- Solubility in Acetone ([3]; solvent: acetone): 0.008 %, w/v
- Solubility in Ethanol ([3]; solvent: ethanol): 0.27 %, w/v
- solubility ([3]; solvent: water): 13.6 mg/mL
- Hygroscopicity [4]: non-hygroscopic
- Chemical and physical stability [5]: chemically and physically stable
SMILES: COc1ccc(CC(C)NCC(O)c2ccc(O)c3[nH]c(=O)ccc23)cc1 [Carmoterol hemi-fumarate, 8-hydroxy-5-[(1R)-1-hydroxy-2-[[(1R)-2-(4-methoxyphenyl)-1-methylethyl]amino]ethyl]-2(1H)-quinolinone (carmoterol) hemi-fumarate salt]
